{"source": "the NIST ThermoML archive (doi:10.1021/acs.jced.5b00776)", "details": "Wilhelmi plate", "note": "Numbers after ± are expanded uncertainties."}
{"molecule": "O", "note": "[water]", "values": [{"measurement": "surface tension liquid-gas", "setting": "272.64 K, Metastable liquid", "value": "75.78 ± 0.03", "unit": "mN/m"}, {"measurement": "surface tension liquid-gas", "setting": "273.04 K, Metastable liquid", "value": "75.71 ± 0.03", "unit": "mN/m"}, {"measurement": "surface tension liquid-gas", "setting": "275.06 K, Liquid", "value": "75.41 ± 0.03", "unit": "mN/m"}, {"measurement": "surface tension liquid-gas", "setting": "276.72 K, Liquid", "value": "75.17 ± 0.03", "unit": "mN/m"}, {"measurement": "surface tension liquid-gas", "setting": "280.09 K, Liquid", "value": "74.69 ± 0.03", "unit": "mN/m"}, {"measurement": "surface tension liquid-gas", "setting": "280.34 K, Liquid", "value": "74.65 ± 0.03", "unit": "mN/m"}, {"measurement": "surface tension liquid-gas", "setting": "283.27 K, Liquid", "value": "74.23 ± 0.03", "unit": "mN/m"}, {"measurement": "surface tension liquid-gas", "setting": "286.54 K, Liquid", "value": "73.74 ± 0.03", "unit": "mN/m"}, {"measurement": "surface tension liquid-gas", "setting": "288.33 K, Liquid", "value": "73.46 ± 0.03", "unit": "mN/m"}, {"measurement": "surface tension liquid-gas", "setting": "290.57 K, Liquid", "value": "73.12 ± 0.03", "unit": "mN/m"}, {"measurement": "surface tension liquid-gas", "setting": "293.04 K, Liquid", "value": "72.74 ± 0.03", "unit": "mN/m"}, {"measurement": "surface tension liquid-gas", "setting": "294.13 K, Liquid", "value": "72.58 ± 0.03", "unit": "mN/m"}, {"measurement": "surface tension liquid-gas", "setting": "295.71 K, Liquid", "value": "72.33 ± 0.03", "unit": "mN/m"}, {"measurement": "surface tension liquid-gas", "setting": "297.4 K, Liquid", "value": "72.07 ± 0.03", "unit": "mN/m"}, {"measurement": "surface tension liquid-gas", "setting": "298.42 K, Liquid", "value": "71.91 ± 0.03", "unit": "mN/m"}, {"measurement": "surface tension liquid-gas", "setting": "299.35 K, Liquid", "value": "71.77 ± 0.03", "unit": "mN/m"}, {"measurement": "surface tension liquid-gas", "setting": "300.3 K, Liquid", "value": "71.62 ± 0.03", "unit": "mN/m"}, {"measurement": "surface tension liquid-gas", "setting": "301.78 K, Liquid", "value": "71.39 ± 0.03", "unit": "mN/m"}, {"measurement": "surface tension liquid-gas", "setting": "302.43 K, Liquid", "value": "71.28 ± 0.03", "unit": "mN/m"}, {"measurement": "surface tension liquid-gas", "setting": "303.41 K, Liquid", "value": "71.13 ± 0.03", "unit": "mN/m"}, {"measurement": "surface tension liquid-gas", "setting": "304.45 K, Liquid", "value": "70.96 ± 0.03", "unit": "mN/m"}, {"measurement": "surface tension liquid-gas", "setting": "305.69 K, Liquid", "value": "70.76 ± 0.03", "unit": "mN/m"}, {"measurement": "surface tension liquid-gas", "setting": "306.63 K, Liquid", "value": "70.61 ± 0.03", "unit": "mN/m"}, {"measurement": "surface tension liquid-gas", "setting": "307.99 K, Liquid", "value": "70.39 ± 0.03", "unit": "mN/m"}, {"measurement": "surface tension liquid-gas", "setting": "310.6 K, Liquid", "value": "69.97 ± 0.03", "unit": "mN/m"}, {"measurement": "surface tension liquid-gas", "setting": "313.69 K, Liquid", "value": "69.47 ± 0.03", "unit": "mN/m"}, {"measurement": "surface tension liquid-gas", "setting": "316.02 K, Liquid", "value": "69.07 ± 0.03", "unit": "mN/m"}, {"measurement": "surface tension liquid-gas", "setting": "318.49 K, Liquid", "value": "68.66 ± 0.03", "unit": "mN/m"}, {"measurement": "surface tension liquid-gas", "setting": "323.62 K, Liquid", "value": "67.79 ± 0.03", "unit": "mN/m"}, {"measurement": "surface tension liquid-gas", "setting": "328.1 K, Liquid", "value": "67.03 ± 0.03", "unit": "mN/m"}, {"measurement": "surface tension liquid-gas", "setting": "333.49 K, Liquid", "value": "66.1 ± 0.03", "unit": "mN/m"}, {"measurement": "surface tension liquid-gas", "setting": "337.83 K, Liquid", "value": "65.34 ± 0.03", "unit": "mN/m"}, {"measurement": "surface tension liquid-gas", "setting": "343.49 K, Liquid", "value": "64.33 ± 0.03", "unit": "mN/m"}]}
